{"source": "patent US4529593A", "about": "“Use of gallium salts to treat disorders of calcium homeostasis” (Sloan-Kettering Institute for Cancer Research, priority 1984, dated 1985)", "key": {"bone turnover": {"system": "bone turnover", "assay": "bone turnover in a patient with multiple myeloma and extensive bone destruction", "type": "in vivo", "conditions": "200 mg/sq m/d×7 d infusion; for urine OH--Proline: previous 95.4; for urine Calcium: previous 618; for urine Phosphorus: previous 1630; for Urine Volume: previous 3640", "description": "Summary: Patients with bone metastasis suffer progressive erosion of bone which causes pain, immobilization and fractures. Clinically, bone metastases are evaluated by sequential x-rays over a period of months to years. Other measures have recently been employed to measure bone turnover in patients with both cancer and non-cancerous bone resorption. In general, increased bone turnover is associated with increased loss of calcium into the urine and with increased excretion of hydroxyproline ([…]). Measurements of these parameters have been used to assess whether a new drug affects bone resorption (Siris, E. S. et al, New Engl J Med 302:310, 1980). We recently measured these parameters in a patient with multiple myeloma and extensive bone destruction who received gallium nitrate (200 mg/sq m/d×7 d by infusion)."}, "[1]": {"system": "bone mineral (metaphysis)", "assay": "gallium incorporation into bone mineral, X-ray diffraction", "type": "in vivo, rats", "from_the_text": "Conceivably, gallium promotes or stabilizes crystal structure to produce matrix with more crystalline hydroxyapatite, or the drug promotes growth rather than dissolution of smaller crystallites."}, "[2]": {"assay": "oral absorption and excretion of gallium nitrate in the dog", "type": "in vivo", "conditions": "for plasma gallium concentration: single oral dose 1200 mg by gavage", "description": "To evaluate the oral absorption and excretion of gallium nitrate, a concentrated solution of the drug was administered to a dog by oral gavage (total dose=1200 mg). Sequential plasma samples and the next 24 hour urinary volume were collected and assayed for gallium concentration by a flameless atomic absorption sprectrophotometer (Kelsen, D. P. et al, Cancer 46:2009, 1980).\nThe subsequent 24 hour urine volume was 183 ml and it contained a total amount of 1.13 mg of elemental gallium. Assuming similar patterns of excretion in humans and dogs, it is estimated that approximately 0.5-2% of an orally administered dose is absorbed and excreted into the urine."}, "kidney": {"system": "kidney", "conditions": "Leyland-Jones et al 1983; cited from earlier work"}}}
{"smiles": "O=[N+]([O-])[O-].O=[N+]([O-])[O-].O=[N+]([O-])[O-].[Ga+3]", "note": "[gallium nitrate]", "values": [{"measurement": "urine OH--Proline", "setting": "bone turnover; day 8", "value": 19.0, "unit": "mg/24 h"}, {"measurement": "urine Calcium", "setting": "bone turnover; day 8", "value": 97, "unit": "mg/24 h"}, {"measurement": "urine Phosphorus", "setting": "bone turnover; day 8", "value": 419, "unit": "mg/24 h"}, {"measurement": "Urine Volume", "setting": "bone turnover; day 8", "value": 3225, "unit": "ml/24 h"}, {"measurement": "amount of calcium and hydroxyproline excretion", "setting": "bone turnover; myeloma patient", "value": "marked decrease"}, {"measurement": "bone pain", "setting": "bone turnover; myeloma patient", "value": "substantial decrease in bone pain"}, {"measurement": "effect upon the underlying disease", "setting": "bone turnover; myeloma patient", "value": "no effect upon the underlying disease"}, {"measurement": "requirement for narcotics", "setting": "bone turnover; myeloma patient", "value": "reduced requirement for narcotics"}, {"measurement": "urine OH--Proline", "setting": "bone turnover; treatment day 1", "value": 76.0, "unit": "mg/24 h"}, {"measurement": "urine Calcium", "setting": "bone turnover; treatment day 1", "value": 502, "unit": "mg/24 h"}, {"measurement": "urine Phosphorus", "setting": "bone turnover; treatment day 1", "value": 567, "unit": "mg/24 h"}, {"measurement": "Urine Volume", "setting": "bone turnover; treatment day 1", "value": 4365, "unit": "ml/24 h"}, {"measurement": "urine OH--Proline", "setting": "bone turnover; treatment day 4", "value": 23.9, "unit": "mg/24 h"}, {"measurement": "urine Calcium", "setting": "bone turnover; treatment day 4", "value": 239, "unit": "mg/24 h"}, {"measurement": "urine Phosphorus", "setting": "bone turnover; treatment day 4", "value": 607, "unit": "mg/24 h"}, {"measurement": "Urine Volume", "setting": "bone turnover; treatment day 4", "value": 3620, "unit": "ml/24 h"}, {"measurement": "crystal size in metaphyseal-derived particles (X-ray diffraction)", "setting": "[1]; gallium treated animals vs controls", "value": "marked increase in crystal size"}, {"measurement": "gallium incorporation into bone", "setting": "[1]; rats treated with gallium nitrate", "value": "incorporated into the bone metaphysis where more active bone mineral turnover was occurring and into the metabolically more active crystalline pool"}, {"measurement": "oral gallium nitrate dose estimated to achieve effective plasma levels", "setting": "[2]; 70 kg human, extrapolated from dog data", "value": "0.5-20 gms"}, {"measurement": "toxic reaction", "setting": "[2]; dog, oral 1200 mg", "value": "no toxic reaction"}, {"measurement": "total amount of elemental gallium in urine", "setting": "[2]; dog, oral 1200 mg, 24 hour urine", "value": 1.13, "unit": "mg"}, {"measurement": "plasma gallium concentration", "setting": "[2]; dog, 0 hrs", "value": 0, "unit": "µg/mL"}, {"measurement": "plasma gallium concentration", "setting": "[2]; dog, 0.25 hrs", "value": 0.5, "unit": "µg/mL"}, {"measurement": "plasma gallium concentration", "setting": "[2]; dog, 0.5 hrs", "value": 1.25, "unit": "µg/mL"}, {"measurement": "plasma gallium concentration", "setting": "[2]; dog, 1 hr", "value": 1.37, "unit": "µg/mL"}, {"measurement": "plasma gallium concentration", "setting": "[2]; dog, 2 hrs", "value": 2.75, "unit": "µg/mL"}, {"measurement": "plasma gallium concentration", "setting": "[2]; dog, 4 hrs", "value": 2.0, "unit": "µg/mL"}, {"measurement": "plasma gallium concentration", "setting": "[2]; dog, 24 hrs", "value": 0.75, "unit": "µg/mL"}, {"measurement": "nephrotoxicity", "setting": "kidney", "value": "generally reversible and that it is not cumulative"}]}
